In PubChem BioAssay (NCI):
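96-well plates; 48 h exposure; 5 concentrations. Endpoints by linear interpolation between flanking doses. Not reached: highest tested concentration assigned. GI50 marks 50% less growth. The concentration for full growth arrest is given as TGI.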

How the values were obtained:
Test in all cases: growth of human tumour cells (NCI), 48 h
RXF 393 renal = test system: RXF 393 renal
DU-145 prostate = test system: DU-145 prostate
HCT-116 colon = test system: HCT-116 colon
EKVX NSCLC = test system: EKVX NSCLC
HL-60(TB) leukemia = test system: HL-60(TB) leukemia
HT29 colon = test system: HT29 colon
LOX IMVI melanoma = test system: LOX IMVI melanoma
PC-3 prostate = test system: PC-3 prostate
HCT-15 colon = test system: HCT-15 colon
NCI-H522 lung = test system: NCI-H522 lung

Compound	TGI (RXF 393 renal)	TGI (DU-145 prostate)	TGI (HCT-116 colon)	TGI (EKVX NSCLC)	TGI (HL-60(TB) leukemia)	TGI (HT29 colon)	TGI (LOX IMVI melanoma)	TGI (PC-3 prostate)	TGI (HCT-15 colon)	TGI (NCI-H522 lung)	GI50 (HCT-116 colon)	GI50 (LOX IMVI melanoma)
COC(=O)[C@H]1NC(=O)CCSSC1(C)C	> 100 µM	> 100 µM	> 100 µM	> 100 µM	> 100 µM	> 100 µM	> 100 µM	> 100 µM	> 100 µM	> 100 µM		
C(/Cc1ccc2c(c1)OCO2)=N\NC1=NCCN1	> 100 µM	> 100 µM	> 100 µM	> 100 µM	> 100 µM	> 100 µM	> 100 µM	> 100 µM	> 100 µM	> 100 µM		
CCN(CC)C(=S)Nc1ccc(-c2cc3ccc(O)cc3oc2=O)cc1	> 100 µM	> 100 µM	> 100 µM	> 100 µM	23.2 µM	30.4 µM	> 100 µM	> 100 µM	67.6 µM	43.7 µM		
C(=N\Nc1ccc(-c2nc3ccccc3[nH]2)cc1)/c1c(-c2ccc(Cc3ccccc3)cc2)[nH]c2ccccc12	14.5 µM	> 80.8 µM	> 68.4 µM	> 100 µM	> 63.5 µM	> 57.9 µM	23 µM	39.2 µM	> 100 µM	31.9 µM		
CSc1c(C#N)c(N)nc2c(N=Nc3ccc(Br)cc3)c(N)nn12	21 µM	14.9 µM	12.5 µM	23.9 µM	9.1 µM	29 µM	3.58 µM	23.5 µM	12 µM	12 µM		
Fc1ccc(N=C/C=C/Nc2ccc(F)cc2)cc1	30.5 µM	26.7 µM	18.9 µM	25.9 µM	10.3 µM	24.2 µM	18.5 µM	22.3 µM	15.2 µM	27.6 µM		
C(=Nc1ccc(-c2nc3ccccc3[nH]2)cc1)c1ccc[nH]1	> 100 µM	> 100 µM	> 100 µM	> 100 µM	20.1 µM	> 100 µM	> 100 µM	> 100 µM	> 100 µM	> 100 µM		
C=CC(OC(C)=O)c1ccc(OC(=O)C(C)C)c(OC)c1 (configuration not stated)	14.4 µM	24.5 µM	22.5 µM	16.6 µM	> 23.6 µM	6.09 µM	5.18 µM	19.3 µM	20 µM	3.01 µM		
CCCCCc1nnc(NS(=O)(=O)c2ccc(NC(=O)OCC(C)C)cc2)s1	> 100 µM	> 100 µM	53.7 µM	78.2 µM	> 100 µM	46.1 µM	> 100 µM	> 100 µM	> 100 µM	79 µM		
c1ccc(CN[C@]23C4C5CC6C7C5C2C7[C@@](NCc2ccccc2)(C64)N3Cc2ccccc2)cc1 (some centres not stated)	> 100 µM	> 100 µM	> 100 µM	> 100 µM	> 100 µM	> 100 µM	> 100 µM	> 100 µM	> 100 µM	> 100 µM		
COC(=O)/C=C\C(C#N)(C#N)N=Cc1ccccc1	4.28 µM	31.4 µM	3.4 µM	27.3 µM	6.42 µM	19.4 µM	5.72 µM	13.1 µM	8.79 µM	1.67 µM		
COC12CCCN1c1ccn(Cc3ccccc3)c(=O)c1C2=O (configuration not stated)	> 100 µM	> 100 µM	> 100 µM	> 100 µM	> 100 µM	> 100 µM	> 100 µM	> 100 µM	> 100 µM	> 100 µM		
C=CCc1cc(-c2cc(CC=C)c(O)c(CN(CC)CC)c2)cc(CN(CC)CC)c1O	52 µM	> 100 µM	55.9 µM	> 100 µM	> 86.3 µM	40.9 µM	31.7 µM	> 100 µM	51.7 µM	70.8 µM		
C=C1c2nc3ccccc3n2C=C(c2ccc(C)cc2)N1c1ccc(C)cc1	> 96.6 µM	> 100 µM	> 100 µM	> 100 µM	64.4 µM	> 100 µM	> 100 µM	> 100 µM	> 80.6 µM	56.7 µM		
COc1ccc(/C=C/C(=O)c2cc(C(C)(C)C)c(O)c(C(C)(C)C)c2)cc1OC	7.69 µM	> 70.3 µM	48.6 µM	> 100 µM	17.6 µM	60 µM	29.3 µM	> 46.4 µM	> 100 µM	72.1 µM		
COc1cc2oc(=O)cc(C)c2cc1O	> 100 µM	> 100 µM	> 100 µM	> 100 µM	> 100 µM	> 100 µM	> 100 µM	> 100 µM	> 100 µM	> 100 µM		

Compound	TGI (RXF 393 renal)	TGI (DU-145 prostate)	TGI (HCT-116 colon)	TGI (EKVX NSCLC)	TGI (HL-60(TB) leukemia)	TGI (HT29 colon)	TGI (LOX IMVI melanoma)	TGI (PC-3 prostate)	TGI (HCT-15 colon)	TGI (NCI-H522 lung)	GI50 (HCT-116 colon)	GI50 (LOX IMVI melanoma)
COc1ccc(NC(=O)CC(=O)n2nc(C)c(N=Nc3cccc(C)c3)c2C)cc1	> 100 µM	> 100 µM	> 100 µM	> 100 µM	> 100 µM	> 100 µM	> 100 µM	> 100 µM	> 100 µM	> 100 µM		
Cc1ccc(-n2cc(-c3ccc(Cl)cc3)c3c(N/N=C4\SCC(=O)N4C)ncnc32)cc1	48.1 µM	> 100 µM	38.4 µM	> 100 µM	> 100 µM	> 100 µM	> 100 µM	10.9 µM	> 100 µM	26.7 µM		
O=[N+]([O-])c1ccc(N/N=C/CC(O)(C(F)(F)F)C(F)(F)F)c([N+](=O)[O-])c1	> 10 µM	> 10 µM	> 10 µM	> 10 µM	> 10 µM	> 10 µM	> 10 µM	> 10 µM	> 10 µM	> 10 µM		
CSc1cc(-c2ccccn2)nc(-c2ccccn2)c1	4.47 µM	26.6 µM	11.7 µM	12.3 µM	0.89 µM	13 µM	1.52 µM	17.9 µM	4.11 µM	9.74 µM		
O=c1oc2ccc([N+](=O)[O-])cc2c(Nc2ccc3c(c2)Sc2ccccc2O3)c1[N+](=O)[O-]	40.2 µM	99.5 µM	30.5 µM	68.8 µM	46.8 µM	74.3 µM	36.2 µM	40.8 µM	35 µM	33.8 µM		
CCOC(=O)c1c(Br)c(-c2ccc(OC)cc2)c(Br)n1C	45 µM	> 100 µM	62.6 µM	74.8 µM	14.1 µM	56.3 µM	41.6 µM	> 100 µM	64.2 µM	83.9 µM	16 µM	17.5 µM
CC1=NN(C(=O)CC(=O)Nc2ccccc2Cl)C(=O)C1N=Nc1ccc(S(=O)(=O)c2ccc(N=NC3C(=O)N(C(=O)CC(=O)Nc4ccccc4Cl)N=C3C)cc2)cc1 (configuration not stated)	> 100 µM	> 100 µM	> 100 µM	> 100 µM	> 100 µM	> 100 µM	> 100 µM	> 100 µM	> 100 µM	> 100 µM		
CCCC(O)c1cn(C(NC(=O)c2ccccc2)P(=O)(OCC)OCC)nn1 (configuration not stated)	> 100 µM	> 100 µM	> 100 µM	> 100 µM	> 100 µM	> 100 µM	> 100 µM	> 100 µM	> 100 µM	> 100 µM		
Cc1ccc(NC(=O)C(Cc2c[nH]c3ccccc23)NC(=O)Oc2ccccc2)cc1C (configuration not stated)	> 100 µM	> 100 µM	> 100 µM	> 100 µM	> 100 µM	> 100 µM	> 100 µM	> 100 µM	> 100 µM	> 100 µM		
CCCCCc1cc2cc3c(c(O)c2c(=O)[nH]1)C1(CCC3)C(O)=c2c(=O)c3c(=O)cc(OC)c(=O)c=3c(=O)c2=C1O (configuration not stated)	1.82 µM	3.34 µM	2.41 µM	2.83 µM	1.24 µM	3.11 µM	2.85 µM	3.66 µM	2.33 µM	1.87 µM		
O=[N+]([O-])c1ccc(C(Nc2ccccc2)P(c2ccccc2)c2ccccc2)cc1 (configuration not stated)	> 100 µM	> 100 µM	> 100 µM	> 100 µM	> 100 µM	> 100 µM	> 100 µM	> 100 µM	> 100 µM	> 100 µM		
CC1(C)C(=O)c2ccccc2OC1N1CCN(C2Oc3ccccc3C(=O)C2(C)C)CC1 (configuration not stated)	> 100 µM	> 100 µM	> 100 µM	> 100 µM	> 100 µM	> 100 µM	> 100 µM	> 100 µM	> 100 µM	> 100 µM		
CCO[C@@]1(COCc2ccccc2)OC(=O)C[C@@H]1N1C(=O)OC[C@@H]1c1ccccc1	> 100 µM	> 100 µM	> 100 µM	> 100 µM	> 100 µM	> 100 µM	> 100 µM	> 100 µM	> 100 µM	> 100 µM		
CC(=O)OC(Cc1ccc2ccccc2n1)(C(F)(F)F)C(F)(F)F	2.84 µM	17.9 µM	4.24 µM	10.2 µM	0.352 µM	5.43 µM	0.409 µM	11.7 µM	7.46 µM	2.16 µM		
Cc1ccc2c(=O)c(C(=O)Nn3c(C)csc3=S)c[nH]c2n1	> 100 µM	> 100 µM	> 100 µM	> 100 µM	> 100 µM	> 100 µM	> 100 µM	> 100 µM	> 100 µM	> 100 µM		
CCOC(=O)c1sc2nc(SC)nc3c2c1NCN3c1ccc(F)c(F)c1	16.7 µM	> 100 µM	54.6 µM	> 100 µM	> 100 µM	> 100 µM	> 60.1 µM	> 59.8 µM	> 100 µM	> 100 µM		
